Measured values: patent US11471460B2, “Autophagy modulators for use in treating cancer” (The United States of America,as represented by the …, priority 2017, dated 2022)
“Also recorded” adds a separate entry of the source.

Key:
osteosarcoma U2OS cells = assay: Induction of cytoplasmic vacuoles (enlarged lysosomes) in U2OS cells, light microscopy; type: cell-based, human
Excerpt: Vehicle is the concentration of DMSO that was introduced by addition of compounds.
These effects are dependent on the compound selected, its concentration and the length of time cells are exposed to the compound.
(§1) Cells were obtained from the American Type Culture Collection. BORCS5-KO HeLa cells have been described previously. Osteosarcoma U2OS were routinely seeded in 6-well plates (0.5×10^5 cells/well) and cultured in Dulbecco's Modified Eagle's medium supplemented with L-Glutamine, 4.5 g/L Glucose, Sodium Pyruvate, Phenol Red, and either heat-inactivated or normal 10% fetal calf serum at 37° C. in 5% CO2. Approximately 15-19 hours later, the indicated compound was added in 1:1000 dilutions. Results were the same using either heat-inactivated or normal fetal calf serum. Melanoma A375, embryonic kidney 293T and human foreskin fibroblast Hs27 cells were cultured in the same medium, except that cells were seeded into 12-well plates at 10^3 cells/well.
Phase contrast photographs were taken on an Olympus CKX41 microscope. Confocal photographs were taken on a Leica TCS-SP5II. For immunofluorescence microscopy, the cells were fixed in 4% paraformaldehyde (Electron Microscopy Sciences, 15714) in PBS for 12 min, permeabilized with 0.2% Triton X-100 in PBS for 10 min, and blocked in 0.2% BSA (Sigma-Aldrich, A7030) in PBS for 30 min at 37° C. For endogenous LC3 staining, cells were permeabilized in methanol for 20 min at −20° C. after the paraformaldehyde fixation. The cells were sequentially incubated with primary antibodies (LAMP1: Developmental Studies Hybridoma Bank; LC3 and LAMTOR4: Cell Signaling Technology; FLAG epitope: Sigma-Aldrich) and secondary antibodies conjugated to Alexa Fluor dyes (Life Technologies) diluted with 0.2% BSA in PBS for 30 min at 37° C. Coverslips were mounted on glass slides using Fluoromount-G (Electron Microscopy Sciences, 17984-24). Cells were imaged using a Zeiss LSM880 with AiryScan confocal microscope (Carl Zeiss AG, Oberkochen, Germany) or a Leica TCS-SP5II. The final composite images were created and properly analyzed for lysosomal size examination using ImageJ (NIH).

lysosomes in U2OS cells = assay: Ratiometric analysis of lysosomal pH (Oregon Green 488 dextran); type: cell-based, human; details: 1 μM
Procedure: U2OS cells were cultured for 4 hr with vehicle, 1 μM compound 1, or 50 mM ammonium chloride. The results of two independent experiments were averaged together. Data were analyzed by one-way ANOVA (p=0.0005) and Tukey's post-hoc test (p<0.0001). Scale bars indicate 10 μm. The results of three independent experiments were averaged together. […] Cells that had been transfected with LAMP1-RFP expression vector were then stained with LysoSensor Green DND-189, a fluorescent probe that fluoresces only in the acidic compartments of live cells. […] Bars represent 20 μm.
To determine the pH of individual lysosomes, dual-wavelength ratio imaging was conducted as previously describe (102), with minor modifications. U2OS and RAW264.7 cells were cultured in imaging chambers (Cellvis, Mountain View Calif., Cat #C4-1.5/h-N) in complete culture medium at 37° C. and 5% CO2. Cells were incubated overnight with 50 μg/mL Oregon Green 488 dextran (Invitrogen, Carlsbad, Calif., D7170). The following day, the cells were cultured with dextran-free complete culture medium for at least 2 h to ensure lysosomal targeting of the probe. Cells were then cultured with compound 1 for the indicated times and concentrations. […]

embryonic kidney cells = assay: Viability of embryonic kidney cells; type: cell-based; details: Homo sapiens; embryonic kidney cells; read-out: EC50
Procedure: FIG. 18 summarizes results from 13 human cell lines. All cells were seeded at the same cell density in a rich culture medium and assayed under identical conditions. Compound 1 efficacy is the ratio of cell viability with compound 1 to cell viability with chloroquine derivatives.
as §1, with “Results were the same using either heat-inactivated or normal fetal calf serum.” left out

melanoma A375 cells = assay: Cytoplasmic vacuolization of A375 cells; type: cell-based, human
melanoma A375 tumors = assay: Expansion of preformed A375 tumors in outbred nude mice; type: in vivo
Procedure: Melanoma A375 cells were inoculated subcutaneously into outbred nude mice on day 0 (broad arrow). Intraperitoneal injections (arrows) of vehicle (open circles), 20 mg compound 1 (grey circles), or 40 mg compound 1/kg (solid circle) of mouse weight were administered daily beginning with day 7 when palpable tumors were present. Each group contained three mice. SEMs are indicated. Error bars indicate the SEM for 6 tumors.
The genetic diversity of human populations is greater than the genetic diversity of inbred animals. Therefore, the experiment in FIG. 20 with inbred nude mice was repeated with outbred nude mice.

## C1=Nc2ccccc2/C1=C/NNc1nc(Nc2ccccc2)nc(N2CCOCC2)n1 [compound 1]
Osteosarcoma U2OS cells; U2OS cells
  Time to detect vacuoles by light microscopy: ≤ 20 min
Osteosarcoma U2OS cells; U2OS cells, compound 1 compared to compound 3
  Variation of the concentration required to induce vacuolization, most potent compared to least potent: 400 fold
Osteosarcoma U2OS cells; by 4 hours
  Concentration at which 80% of the cells were vacuolated: 0.01 to 0.1 µM
Osteosarcoma U2OS cells; same U2OS cells
  Concentration to induce LC3-II accumulation, inhibit proliferation or viability relative to concentration to observe vacuolization: about 30 fold
Lysosomes in U2OS cells; 4 h, untreated cells 5.3
  Mean pH of lysosomes: 5.0
Lysosomes in U2OS cells; 4 hours
  Effect on lysosomal acidity: did not affect lysosomal acidity significantly
Embryonic kidney cells
  EC50: > 10 µM
Melanoma A375 cells
  Cytoplasmic vacuolization of A375 cells: induced extensive cytoplasmic vacuolization
Melanoma A375 tumors; 20 or 40 mg/kg intraperitoneally daily, outbred nude mice
  Expansion of preformed tumors: inhibited by compound 1 in a dose dependent manner; also recorded: inhibited growth of tumors
Melanoma A375 tumors; mice weighed each day during injections
  Ill effects on mice: no visible ill effects
